Reference: US20250333371A1, “COMPOUNDS” (PSYLO PTY LTD, priority 2022, published 2025)
Several values for one entry are separate records, joined by “and”; a condition that tells them apart may be missing. Equal entries are not always repeated. Where two headings read alike, the source gives them in different places.

How the values were obtained:
[1] = In vivo pharmacokinetics: plasma and brain exposure after IP administration; parameters: species or system male C57BL/6 mice; conditions: for B:P Ratio Individual / Plasma Concentration (μM) Individual / concentration at 0.5 h / concentration at 0.083 h / concentration at 4 h / Kp at 0.083 h / Kp at 0.5 h / Kp at 4 h / Kp: 10 mg/kg; for Kp at 0.083 h / Kp at 0.5 h / Kp at 4 h / Kp: brain/plasma; for AUC(0-t): read-out: Plasma AUC0-4 h; for AUC(0-inf): read-out: Plasma AUC0-inf; for half-life: read-out: Apparent t1/2 (converted)
Experimental: The study was conducted using established procedures in accordance with the Australian Code of Practice for the Care and Use of Animals for Scientific Purposes, and the study protocols were reviewed and approved by the Monash Institute of Pharmaceutical Sciences Animal Ethics Committee.
The systemic exposure of selected examples was studied in non-fasted male C57BL/6 mice weighing between 22.3-26.2 g. Mice had access to food and water ad libitum throughout the pre- and post-dose sampling period.
On the day of dosing, the formulation of each compound was prepared by dissolving solid compound in phosphate buffer saline (50 mM) using vortexing, creating colourless solutions (pH 6.1-6.3) for each compound.
Compounds were dosed to mice by IP injection (10 mL/kg dose volume via a 27G needle; n=9 mice per compound) and blood samples were collected at 5 and 30 min; 1, 2 and 4 h post-dose (n=3 mice per time point for each compound). A maximum of three blood samples were obtained from each mouse, with plasma samples being taken via submandibular bleed (approximately 120 μL). Once collected, blood samples were centrifuged immediately, supernatant plasma was removed, and stored at −80° C. until analysis by LCMS. In addition, at the 5 and 30 min and 4 h post-dose time points, the whole brain was rapidly removed from the carcass soon after the blood collection. The whole brains were blotted to remove excess blood, placed into pre-weighed polypropylene vials, and weighed. The brains were snap frozen in dry ice and subsequently stored frozen (−80° C.) until analysis.
Concentrations of test compound in plasma and tissue samples were determined using an LCMS/MS method validated for linearity, accuracy, precision, matrix factor and recovery (Table 2).
Test compound standard solutions were diluted from a concentrated stock solution (1 mg/mL in DMSO) using 50% acetonitrile in water (v/v) and a calibration curve was prepared in a matched matrix to the test samples.
Plasma: The plasma calibration curve was prepared by spiking aliquots of blank mouse plasma (25 μL) with test compound standard solutions (5 μL) and internal standard solution (5 μL of diazepam, 5 μg/mL in 50% acetonitrile in water). Test plasma samples (25 μL) were thawed, mixed, and then spiked with internal standard solution (5 μL). Plasma protein precipitation was performed by addition of acetonitrile (3-fold volume ratio) and thorough vortex mixing. Samples were centrifuged (RCF=9391×g) for 3 minutes and the supernatant (90 μL) was collected for analysis.
Tissue: Pre-weighed tissue samples (brain) were homogenised using a glass rod in buffer containing an EDTA/potassium fluoride solution (0.1 M/4 mg/mL) as a stabilisation cocktail to minimise the potential for ex vivo degradation (3 mL cocktail/g tissue). The tissue homogenate was briefly centrifuged (RCF=79×g) for 10 seconds to separate the foam layer before transferring an aliquot of the tissue homogenate (200 μL) to a fresh Eppendorf tube for sample extraction. Calibration standards were prepared by spiking blank brain homogenate (200 μL) with the solution standards (10 μL) and the internal standard (10 μL). Study samples were similarly prepared, except that acetonitrile (10 μL) was added instead of solution standards to maintain the same volume. Protein precipitation was carried out by the addition of a 3-fold volume of acetonitrile, followed by vortex mixing and centrifugation (RCF=9391×g) for 3 min to recover the supernatant for analysis.
Replicate analysis: Triplicate analytical replicate (ARs) samples were prepared similarly to the standards for each sample type at three concentrations (50, 500 and 2,000 ng/mL) and repeat injections of these ARs were included throughout the analytical run to assess assay performance. The extraction of the test compound from the standards and ARs were conducted as described above. […]

5-HT2C = target: T1, 5-HT2C (Homo sapiens, UniProt P28335); experiment: FLIPR Ca2+ flux functional assay, 5-HT2C receptor (stably transfected HEK293); assay type: cell-based
T1 construct: host or cells: HEK293
T1 sequence (P28335 33-458): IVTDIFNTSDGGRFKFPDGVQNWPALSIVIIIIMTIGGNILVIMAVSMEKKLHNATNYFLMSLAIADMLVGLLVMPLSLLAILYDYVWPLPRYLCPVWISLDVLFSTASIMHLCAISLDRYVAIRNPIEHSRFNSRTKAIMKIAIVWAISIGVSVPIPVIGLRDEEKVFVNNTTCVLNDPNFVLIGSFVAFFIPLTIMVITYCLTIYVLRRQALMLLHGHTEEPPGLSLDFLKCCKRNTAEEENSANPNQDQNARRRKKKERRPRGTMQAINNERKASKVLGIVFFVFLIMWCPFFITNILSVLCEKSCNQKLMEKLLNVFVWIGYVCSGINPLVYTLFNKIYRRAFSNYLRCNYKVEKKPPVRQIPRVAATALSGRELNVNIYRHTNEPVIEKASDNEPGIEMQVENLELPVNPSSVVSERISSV
Experimental: (§1) Activity at 5-HT2A, 5-HT2B and 5-HT2C receptors was determined using a FLIPR Ca^2+ flux assay at WuXi AppTec Co. Ltd. (Hong Kong) Discovery Biology Unit according to their standard protocols. Briefly, stably transfected cells expressing the receptor of interest (HEK293 for 5-HT2A and 5-HT2C; CHO-K1 for 5-HT2B) were grown and plated in a 384 well plate and incubated at 37° C. and 5% CO2 overnight. A 250 mM stock solution of probenecid in FLIPR calcium assay buffer (10 mL) was freshly prepared and combined with a fluorescent dye (Fluo-4 Direct) to give a final assay concentration of 2.5 mM. Reference compounds were 4-fold serially diluted and the screening compounds were 3-fold serially diluted in 100% DMSO for 10 points using Agilent Bravo, and 750 nL was added to a 384 well compound plate using Echo along with 30 μL assay buffer. The fluorescent dye was then added to the assay plate along with assay buffer to a final volume of 40 μL. The cell plate was incubated for 50 min at 37° C. and 5% CO2 and placed into the FLIPR Tetra along with the compound plate. 10 μL of references and compounds were then transferred from the compound plate into the cell plate and the fluorescent signal was read.

5-HT2A = target: T2, 5-HT2A (Homo sapiens, UniProt P28223); experiment: FLIPR Ca2+ flux functional assay, 5-HT2A receptor (stably transfected HEK293); assay type: cell-based
T2 construct: host or cells: HEK293
T2 sequence (P28223 whole entry): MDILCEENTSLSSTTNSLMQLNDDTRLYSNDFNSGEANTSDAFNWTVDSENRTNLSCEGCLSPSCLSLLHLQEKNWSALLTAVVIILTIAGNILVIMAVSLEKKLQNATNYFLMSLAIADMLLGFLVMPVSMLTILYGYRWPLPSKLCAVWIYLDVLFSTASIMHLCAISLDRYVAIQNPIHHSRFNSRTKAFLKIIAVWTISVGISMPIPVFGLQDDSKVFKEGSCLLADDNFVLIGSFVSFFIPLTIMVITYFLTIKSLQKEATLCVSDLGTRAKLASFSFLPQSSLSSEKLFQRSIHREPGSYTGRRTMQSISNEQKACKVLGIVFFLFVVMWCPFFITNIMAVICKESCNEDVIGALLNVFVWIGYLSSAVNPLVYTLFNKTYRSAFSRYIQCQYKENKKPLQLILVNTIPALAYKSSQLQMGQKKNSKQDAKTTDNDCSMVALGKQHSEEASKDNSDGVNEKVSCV
Experimental: as §1

[2] = IP 10 mg/kg, 0.083 h, individual mice
[3] = IP 10 mg/kg, 0.083 h, individual mice, read-out: Brain Parenchyma Concentration (μM) Individual
[4] = IP 10 mg/kg, 0.5 h, individual mice
[5] = IP 10 mg/kg, 0.5 h, individual mice, read-out: Brain Parenchyma Concentration (μM) Individual
[6] = IP 10 mg/kg, 4 h, individual mice
[7] = IP 10 mg/kg, 4 h, individual mice, read-out: Brain Parenchyma Concentration (μM) Individual
[8] = male, C57BL/6, mouse, brain, ip, 0.083 h, individual mice, read-out: Brain Parenchyma Concentration (μM) Individual
[9] = male, C57BL/6, mouse, brain, ip, 0.083 h, n = 3, read-out: Brain Parenchyma Concentration (μM) Mean ± SD
[10] = male, C57BL/6, mouse, brain, ip, 0.5 h, n = 3, read-out: Brain Parenchyma Concentration (μM) Mean ± SD
[11] = male, C57BL/6, mouse, brain, ip, 4 h, n = 3, read-out: Brain Parenchyma Concentration (μM) Mean ± SD
[12] = male, C57BL/6, mouse, ip, 0.083 h, individual mice, read-out: B:P Ratio Individual
[13] = male, C57BL/6, mouse, ip, 0.083 h, n = 3, read-out: B:P Ratio Mean ± SD
[14] = male, C57BL/6, mouse, ip, 0.5 h, individual mice, read-out: B:P Ratio Individual
[15] = male, C57BL/6, mouse, ip, 0.5 h, n = 3, read-out: B:P Ratio Mean ± SD
[16] = male, C57BL/6, mouse, ip, 4 h, individual mice, read-out: B:P Ratio Individual
[17] = male, C57BL/6, mouse, ip, 4 h, n = 3, read-out: B:P Ratio Mean ± SD
[18] = male, C57BL/6, mouse, ip, (fu, brain * AUCbrain, 0-4 h)/(fu, plasma * AUCplasma, 0-4 h), read-out: (Unbound) time-averaged B:P
[19] = male, C57BL/6, mouse, ip, AUCbrain, 0-4 h/AUCplasma, 0-4 h, read-out: (Total) time-averaged B:P
[20] = male, C57BL/6, mouse, plasma, ip, 0.083 h, individual mice, read-out: Plasma Concentration (μM) Individual
[21] = male, C57BL/6, mouse, plasma, ip, 0.083 h, n = 3, read-out: Plasma Concentration (μM) Mean ± SD
[22] = male, C57BL/6, mouse, plasma, ip, 0.5 h, individual mice, read-out: Plasma Concentration (μM) Individual
[23] = male, C57BL/6, mouse, plasma, ip, 0.5 h, n = 3, read-out: Plasma Concentration (μM) Mean ± SD
[24] = male, C57BL/6, mouse, plasma, ip, 4 h, n = 3, read-out: Plasma Concentration (μM) Mean ± SD
[25] = male, C57BL/6, mouse, plasma, IP 10 mg/kg
[26] = male, C57BL/6, mouse, IP 10 mg/kg, plasma
[27] = agonist activity, Ca2+ flux, HEK293

Structure (SMILES)	Brain AUC0-4 h ([1]; IP 10 mg/kg) [µM·h]	B:P Ratio Individual [1, 2]	Plasma Concentration (μM) Individual [1, 2]	concentration at 0.5 h [1, 3]	B:P Ratio Individual [1, 4]	Plasma Concentration (μM) Individual [1, 4]	concentration at 0.5 h [1, 5]	B:P Ratio Individual [1, 6]	Plasma Concentration (μM) Individual [1, 6]	concentration at 0.5 h [1, 7]	concentration at 0.083 h [1, 8] [µM]	concentration at 0.083 h [1, 9] [µM]	concentration at 0.5 h [1, 10] [µM]	concentration at 4 h [1, 11] [µM]	Kp at 0.083 h [1, 12]	Kp at 0.083 h [1, 13]	Kp at 0.5 h [1, 14]	Kp at 0.5 h [1, 15]	Kp at 4 h [1, 16]	Kp at 4 h [1, 17]	further results
COc1ccc2cccc(CCN(C)C3CC3)c2c1 [Example I-15, N-(2-(7-methoxynaphthalen-1-yl)ethyl)-N-methylcyclopropanamine]	13.8	6.9 and 6.7	1.38 µM and 1.48 µM	9.59 µM and 9.89 µM	8.2 and 8.1	0.932 µM and 0.820 µM	7.6 µM and 6.64 µM	9.3 and 7.5	0.0701 µM and 0.151 µM and 0.101 µM	0.553 µM and 1.41 µM and 0.755 µM	16.9	12.1 ± 4.14	6.18 ± 1.7	0.905 ± 0.446	7.3	7 ± 0.33	6	7.4 ± 1.2	7.9	8.2 ± 1	concentration at 0.5 h ([1]; male, C57BL/6, mouse, brain, ip, 0.5 h, individual mice, read-out: Brain Parenchyma Concentration (μM) Individual): 4.3 µM; Kp [1, 18]: 2; Kp [1, 19]: 8.1; concentration at 0.083 h [1, 20]: 2.3 µM; concentration at 0.083 h [1, 21]: 1.72 ± 0.506 µM; concentration at 0.5 h [1, 22]: 0.718 µM; concentration at 0.5 h [1, 23]: 0.823 ± 0.107 µM; concentration at 4 h [1, 24]: 0.107 ± 0.0406 µM; Cmax [1, 25]: 1720 nM; Tmax [1, 25]: 5 min; AUC(0-t) [1, 25]: 1.71 µM·h; AUC(0-inf) [1, 25]: 1.9 µM·h; half-life [1, 26]: 72 min; Emax (5-HT2C; [27]): 65%; EC50 (5-HT2C; agonist activity, Ca2+ flux, HEK293, read-out: 5-HT2C EC50): 292 nM; Emax (5-HT2A; [27]): 70%; EC50 (5-HT2A; agonist activity, Ca2+ flux, HEK293, read-out: 5-HT2A EC50): 133 nM
COc1ccc2cccc(CCN(C)C(C)C)c2c1 [Example I-7, N-(2-(7-methoxynaphthalen-1-yl)ethyl)-N-methylpropan-2-amine]	32.3	11 and 8.9	0.896 µM and 1.00 µM	9.90 µM and 8.88 µM	18 and 26	0.947 µM and 1.55 µM	17.9 µM and 17.5 µM and 40.1 µM	14 and 11	0.0483 µM and 0.0571 µM	0.696 µM and 0.639 µM	6.41	8.4 ± 1.79	25.2 ± 13	0.0825	9.2	9.7 ± 1.2	17	21 ± 4.6	16	14 ± 2.4	concentration at 4 h ([1]; male, C57BL/6, mouse, brain, ip, 4 h, individual mice, read-out: Brain Parenchyma Concentration (μM) Individual): 1.14 µM; Kp [1, 18]: 3.2; Kp [1, 19]: 18; concentration at 0.083 h [1, 20]: 0.695 µM; concentration at 0.083 h [1, 21]: 0.864 ± 0.155 µM; concentration at 0.5 h [1, 22]: 1.03 µM; concentration at 0.5 h [1, 23]: 1.18 ± 0.329 µM; concentration at 4 h ([1]; male, C57BL/6, mouse, plasma, ip, 4 h, individual mice, read-out: Plasma Concentration (μM) Individual): 0.0723 µM; concentration at 4 h [1, 24]: 0.0592 ± 0.0121 µM; Cmax [1, 25]: 1180 nM; Tmax [1, 25]: 30 min; AUC(0-t) [1, 25]: 1.82 µM·h; AUC(0-inf) [1, 25]: 1.89 µM·h; half-life [1, 26]: 46.2 min; EC50 (5-HT2C): 603 nM; Emax (5-HT2C; [27]): 56%; EC50 (5-HT2A): 164 nM; Emax (5-HT2A; [27]): 84%
